Results reported in patent US20230142803A1, “NATURAL KILLER CELLS AND ILC3 CELLS AND USES THEREOF” (Celularity Inc., priority 2015, published 2023).

Legend:
[1] = tested on: CD34+ cells; assay: Three-stage method with SR-1 or CH223191 in Stage 1 and Stage 2 media; type: cell-based; settings: for effects on fold expansion, cell purity (CD56+CD3−), and cytotoxicity of K562 cells: 10 μM and 1 μM, K562 at 10:1 (E:T)
Protocol: CD34^+ cells are cultured in the following medium formulations for the indicated number of days, and aliquots of cells are taken for assessment of cell count, cell viability, characterization of natural killer cell differentiation and functional evaluation.
Stage 1 medium: 90% Stem Cell Growth Medium (SCGM) (CellGro®), 10% Human Serum-AB, supplemented with 4.5 U/mL low molecular weight heparin (LMWH), 25 ng/mL recombinant human thrombopoietin (TPO), 25 ng/mL recombinant human Flt3L, 27 ng/mL recombinant human stem cell factor (SCF), 25 ng/mL recombinant human IL-7, 0.05 ng/mL recombinant human IL-6 (500-fold), 0.25 ng/mL recombinant human granulocyte colony-stimulating factor (G-CSF) (50-fold), 0.01 ng/mL recombinant human granulocyte-macrophage colony-stimulating factor (GM-CSF) (500-fold), 0.10% gentamicin, and 1 to 10 μm StemRegenin-1 (SR-1).
Stage 2 medium: 90% SCGM, 10% Human Serum-AB, supplemented with 4.5 U/mL low molecular weight heparin (LMWH), 25 ng/mL recombinant human Flt3L, 27 ng/mL recombinant human SCF, 25 ng/mL recombinant human IL-7, 20 ng/mL recombinant human IL-15, 0.05 ng/mL recombinant human IL-6 (500-fold), 0.25 ng/mL recombinant human G-CSF (50-fold), 0.01 ng/mL recombinant human GM-CSF (500-fold), 0.10% gentamicin, and 1 to 10 μm SR1.
Stage 3 medium: 90% […]™, 10% Human Serum-AB, 0.025 mM 2-mercaptoethanol (55 mM), supplemented with 22 ng/mL recombinant human SCF, 1000 U/mL recombinant human IL-2, 20 ng/mL recombinant human IL-7, 20 ng/mL recombinant human IL-15, 0.05 ng/mL recombinant human IL-6 (500-fold), 0.25 ng/mL recombinant human G-CSF (50-fold), 0.01 ng/mL recombinant human GM-CSF (500-fold), and 0.10% gentamicin.
Stemregenin-1 (SR-1) was evaluated as a component of Stage 1 and Stage 2 media using the three-stage method outlined in Example 1, above, at concentrations of 1 μM, 10 μM, and 30 μM. The same concentrations of CH223191 in the three-stage method were also evaluated.

[2] = tested on: three-stage NK cells; assay: Varying third medium components, flow cytometry evaluation; type: cell-based; settings: presence of SR1 in the third medium
Source text: A flow cytometry panel (Table 7) was utilized for evaluation on days 0, 7, 14, 21, 28, and 35, including cell surface markers CD56, CD3, CD117, CD94, IL1R1, CD11a, CD34, and CD14/CD15 and intracellular markers RORγt, AHR, and perforin.

| Structure (SMILES) | effects on fold expansion, cell purity (CD56+CD3−), and cytotoxicity of K562 cells [1] | effect on NK (CD11a+) vs ILC3 (CD11a−) cell production [2] | cytotoxicity of NK cells produced ([1]; SR-1 at 10 μM in Stage 1 and Stage 2 media vs 1 μM and 30 μM) |
| --- | --- | --- | --- |
| Cc1ccccc1/N=N/c1ccc(NC(=O)c2ccnn2C)c(C)c1 [CH223191, 1-methyl-N-(2-methyl-4-(2-(2-methylphenyl)diazenyl)phenyl)-1H-pyrazole-5-carboxamide] | Comparable effects | – | – |
| CC(C)n1cnc2c(NCCc3ccc(O)cc3)nc(-c3csc4ccccc34)nc21 [SR-1, 4-(2-(2-(benzo[b]thien-3-yl)-9-isopropyl-9H-purin-6-ylamino)ethyl)phenol] | Comparable effects | favor NK (CD11a+) cell production | higher cytotoxicity than the other two concentrations tested |
